“Also recorded” adds a separate entry of the source.
Assays:
GSK-3β = target: T1, GSK-3β (Homo sapiens, UniProt P49841); assay: Immunoblot analysis of GSK-3 phosphorylation status in HCT116 cells; type: cell-based
T1 construct: endogenous in cells; host or cells: HCT116
Description: (§1) Protein concentration was quantified (Bio-Rad, Hercules, Calif.) and protein samples (50 μg) were separated by SDS/PAGE and transferred onto Immobilon™ membranes (Millipore, Bedford, Mass.). […] To detect Bax conformational change, cells were lysed in 1% Chaps buffer and the soluble fraction was immunoprecipitated with anti-Bax monoclonal antibody (6A7, BD, PharMingen), followed by immunoblotting with anti-Bax polyclonal antibody.
(§2) Subcellular fractionation: Cells were lysed in mitochondria lysis buffer (210 mM Mannitol, 70 mM Sucrose, 10 mM Hepes (pH, 7.4), 1 mM EDTA, protease inhibitor cocktail) with a Dounce homogenizer and subjected to centrifugation at 1000×g to pellet the nuclei. Post-nuclear supernatant was centrifuged at 10,000×g to pellet the mitochondria-enriched heavy membrane fraction, and the resulting supernatant was further centrifuged to obtain cytosolic fraction. Total proteins (30 μg) from cytosolic or mitochondrial fractions were subjected to immunoblot analysis.

HCT116 cells = assay: FACS analysis of DNA content (sub-G1 apoptotic fraction); type: cell-based, Human; settings: for effect on ADR-treated cells (apoptosis): concentrations up to 20 μM, with ADR
Description: Cell culture and drug treatments: Human colon cancer cell line HCT116 and its derived isogenic p53^−/−, Puma^−/−, Bax^−/− and p53-inducible DLD cell lines were kindly provided by Dr. Bert Vogelstein (Johns Hopkins University, MD). RKO and RKO/E6 cells were from ATCC. Cells were cultured in DMEM containing 10% FBS. All culture reagents and media were from Invitrogen. 5-Fluorouracil, Adriamycin, etoposide and lithium chloride were purchased from Sigma. GSK-3β specific small molecule inhibitor LY2119301 was a gift from Eli Lilly (Indianapolis) and SB-216763, SB-415283 were obtained from BIOMOL.
FACS analysis of DNA content and caspase-3 activity: Cells were harvested and fixed in 70% ethanol. Fixed cells were stained with propidium iodide (50 μg/ml) after treatment with RNase (100 μg/ml). The stained cells were analyzed for DNA content by fluorescence-activated cell sorting (FACS) in a FACScalibur™ (Becton Dickinson Instrument, San Jose, Calif.). Cell cycle fractions were quantified using the CellQues™ software (Becton Dickinson). To measure caspase-3 activity, cells were fixed with Cytofix/Cytoperm™ solution (BD PharMingen) as instructed, and then stained with FITC-conjugated rabbit anti-active caspase-3 monoclonal antibody (BD PharMingen). Quantification of cells positive for the caspase-3 detection was performed by flow cytometry.

p53 in HCT116 cells = assay: p53 accumulation in cytosol and mitochondria (subcellular fractionation, Western blot); type: cell-based, Human; settings: after drug treatment
Description: (§3) Western blotting, immunoprecipitation and microarray analysis: Cells were scraped, collected and lysed as described previously (Yu, Q., et al. Cancer Res, 62: 5743-5748, 2002). Briefly, cells were lysed with cell lysis buffer (0.3% NP40, 1 mM EDTA, 50 mM Tris-HCl (pH 7.4), 2 mM EGTA, 1% Triton X-100, […], 25 mM NaF, 1 mM Na3VO4, 2 mM AEBSF, 5 μg/ml aprotinin, 1 μg/ml leupeptin) for 30 minutes on ice, and the lysates were clarified by centrifugation at 12,000×g for 15 minutes at 4° C. Protein concentration was quantified (Bio-Rad, Hercules, Calif.) and protein samples (50 μg) were separated by SDS/PAGE and transferred onto Immobilon™ membranes (Millipore, Bedford, Mass.). Antibodies against the following proteins were used: p53 (DO-1), p21, PARP, GSK-α/β, α-Tubulin, and β-actin (Santa Cruz Biotechnology), Puma (Ab-1, Oncogene), Bax (Sigma), phosphor-(Ser9/21)-GSK-3α/β and Caspase-9 (Cell Signaling Technologies), phosphor-(Tyr216/279)-GSK-3α/β (Upstate Biotechnologies), cytochrome c (BD PharMingen). To detect Bax conformational change, cells were lysed in 1% Chaps buffer and the soluble fraction was immunoprecipitated with anti-Bax monoclonal antibody (6A7, BD, PharMingen), followed by immunoblotting with anti-Bax polyclonal antibody. Microarray analysis was performed as described (Kho, P. S., et al. J Biol Chem, 279: 21183-21192, 2004).
as §2

[1] = tested on: p53 and p53 targets in HCT116 cells; assay: Immunoblot analyses of p53 and p53 targets; type: cell-based, Human; settings: for cleavage of PARP: cells treated with genotoxic agents; for p53-mediated p21 induction / p53 accumulation / stability in response to DNA damage: with ADR, etoposide or 5-FU, HCT116 (LY2119301 also RKO)
Description: as §3

GSK-3α = target: T2, GSK-3α (Homo sapiens, UniProt P49840); assay: Immunoblot analysis of GSK-3 phosphorylation status in HCT116 cells; type: cell-based; settings: HCT116 whole lysate immunoblot
T2 construct: endogenous in cells; host or cells: HCT116
Description: as §1, §2

GSK-3α and GSK-3β = settings: in vitro, Coghlan et al. 2000; cited from earlier work

T1 sequence (P49841 whole entry): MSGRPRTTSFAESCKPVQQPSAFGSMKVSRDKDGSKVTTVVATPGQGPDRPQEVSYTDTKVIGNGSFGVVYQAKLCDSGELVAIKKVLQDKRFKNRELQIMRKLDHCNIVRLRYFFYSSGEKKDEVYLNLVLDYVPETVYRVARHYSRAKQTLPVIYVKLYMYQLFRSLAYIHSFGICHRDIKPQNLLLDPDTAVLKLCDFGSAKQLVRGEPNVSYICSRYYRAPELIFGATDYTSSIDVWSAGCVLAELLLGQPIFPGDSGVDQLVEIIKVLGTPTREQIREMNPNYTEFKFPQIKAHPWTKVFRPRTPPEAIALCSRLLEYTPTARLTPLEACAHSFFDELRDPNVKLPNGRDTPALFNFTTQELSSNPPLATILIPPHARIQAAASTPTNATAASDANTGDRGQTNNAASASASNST
T2 sequence (P49840 whole entry): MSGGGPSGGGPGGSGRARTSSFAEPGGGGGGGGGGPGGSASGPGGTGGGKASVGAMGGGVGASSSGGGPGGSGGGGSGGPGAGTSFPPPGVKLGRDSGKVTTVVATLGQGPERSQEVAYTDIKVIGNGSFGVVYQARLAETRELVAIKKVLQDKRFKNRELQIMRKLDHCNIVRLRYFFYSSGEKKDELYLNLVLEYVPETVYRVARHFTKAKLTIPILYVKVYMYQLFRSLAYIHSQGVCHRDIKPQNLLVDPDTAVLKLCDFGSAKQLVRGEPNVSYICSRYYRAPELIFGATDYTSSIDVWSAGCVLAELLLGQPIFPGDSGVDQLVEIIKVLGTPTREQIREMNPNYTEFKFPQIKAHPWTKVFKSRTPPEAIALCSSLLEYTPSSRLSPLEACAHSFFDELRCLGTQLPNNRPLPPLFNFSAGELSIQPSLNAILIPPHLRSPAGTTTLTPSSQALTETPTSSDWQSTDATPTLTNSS

Structure (SMILES)	levels and phosphorylation states of cytosolic and nuclear GSK-3α and GSK-3β (GSK-3β; after etoposide treatment alone)	apoptosis by etoposide alone despite mitochondrial p53 accumulation (HCT116 cells; etoposide without GSK-3β inhibitor)	time of p53 accumulation in the cytosol (not seen until) (p53 in HCT116 cells)	time of p53 accumulation in the mitochondria (as early as) (p53 in HCT116 cells)	effect on ADR-treated cells (apoptosis) (HCT116 cells)	cleavage of PARP [1]	p53-mediated p21 induction [1]	p53 accumulation / stability in response to DNA damage [1]	inhibitory serine 9 phosphorylation on GSK-3β (GSK-3β; HCT116 whole lysate immunoblot)	tyrosine phosphorylation of GSK-3β (GSK-3β; nuclear and cytoplasmic fractions)	activating tyrosine phosphorylation on GSK-3α (GSK-3α)	inhibitory serine 21 phosphorylation on GSK-3α (GSK-3α)	inhibition of GSK-3α versus GSK-3β (GSK-3α and GSK-3β)	p53-mediated p21 induction ([1]; listed as SB-126763)	p53 accumulation / stability in response to DNA damage ([1]; listed as SB-126763)
COc1cc([C@@H]2c3cc4c(cc3[C@@H](O[C@@H]3O[C@@H]5CO[C@@H](C)O[C@H]5[C@H](O)[C@H]3O)[C@H]3COC(=O)[C@H]23)OCO4)cc(OC)c1O [etoposide]	no changes	failed to induce apoptosis	6 h	2 h	–	–	–	–	–	–	–	–	–	–	–
O=C1NC(=O)C(c2ccccc2[N+](=O)[O-])=C1Nc1ccc(O)c(Cl)c1 [SB-415286]	–	–	–	–	no effect	did not induce	no affect; also recorded: no effect	no affect; also recorded: no effect	–	–	–	–	–	–	–
O=c1[nH]cc(F)c(=O)[nH]1 [5-FU, 5-fluorouracil]	–	–	6 h	2 h	–	–	–	–	–	–	–	–	–	–	–
Cn1cc(C2=C(c3ccc(Cl)cc3Cl)C(=O)NC2=O)c2ccccc21 [SB-216763]	–	–	–	–	no effect	did not induce	no affect	no affect	slightly reduced	did not block	reduced	induced	equally effective	no effect	no effect
